Reference: patent US20260217701A1, “SELECTIVE BET INHIBITORS AND USES THEREOF” (Tay Therapeutics Limited, priority 2022, published 2026)
Where two headings read alike, the source gives them in different places.

Experiment: Rat PK study #1 (Compound A PO, methylcellulose vs propylene glycol formulation)
Format: in vivo, Lewis rats
Settings: male, rat, plasma, Lewis rats, PO 10 mg/kg; for concentration at 2 h / concentration at 4 h / concentration at 8 h / concentration at 24 h / AUC(0-t) / Tmax / Cmax / concentration at 0.083 h / concentration at 0.25 h / concentration at 0.5 h / concentration at 1 h: Lewis, po, 10 mg/kg; for Cmax: read-out: Cmax
Experimental: For the first rat pharmacokinetic study, the pharmacokinetics of Compound A were assessed in male Lewis rats. Compound A was prepared in two different formulations (1% methylcellulose and 20% propylene glycol/20% Vitamin E/60% water) according to Table 3A (see Tables 2A and 2D for formulations). The formulations were made fresh prior to use. Animals were divided into two groups based on the compound formulation (n=3/group). The Compound A solutions were administered to animals orally (PO) and animals were then monitored over a 24 h period.
Blood samples (~0.2 mL) were collected according to a schedule (0.083, 0.25, 0.5, 1, 2, 4, 8, and 24 h following the initial dosing) via the jugular vein by cannulation and EDTA-K2 was used as anticoagulant. Within 30 minutes of collection, the samples were centrifuged at approximately 4000 times g-force for 5 minutes at 4° C. to obtain blood plasma. The plasma samples were immediately divided into two aliquots (~75 μL each), transferred to a cryogenic vial, and stored in a freezer at −75±15° C. prior to analysis.
The concentration of Compound A in plasma samples was determined by liquid chromatography-mass spectrometry (LC-MS/MS) using a Shimadzu HPLC (DGU-20A5R; LC-30AD; SIL-30AC; Rack changer II; CTO-31A; and CBM-20A) and an AB API 5500 LC/MS/MS instrument. Samples were analyzed on an Agilent Poroshell 120 EC-C18 4 μm (50×2.1 mm) column. Solution A in the mobile phase was 95% water (0.1% formic acid) and solution B was 95% acetonitrile in water (0.1% formic acid), injection volume was 3 μL, and flow rate was 0.6 mL/min.
To prepare samples for analysis, serial concentrations were prepared by diluting the stock solution of analyte with a 50% acetonitrile in water solution. 5 μL working solutions (5, 10, 20, 50, 100, 500, 1000, 5000, and 10000 ng/ml) were added to 50 μL of the blank Lewis rat plasma to achieve calibration standards of ~0.5 to 1000 ng/ml (0.5, 1, 2, 5, 10, 50, 100, 500, and 1000 ng/ml) in a total volume of 55 μL. Five quality control samples at 1 ng/ml, 2 ng/ml, 5 ng/mL, 50 ng/mL, and 800 ng/mL for plasma were prepared independently of those used for the calibration curves. These QC samples were prepared on the day of analysis in the same way as calibration standards.
55 μL of standards, 55 μL of QC samples and 55 μL of unknown samples (50 μL of unknown rat plasma with 5 μL of blank solution) were added to 200 μL of acetonitrile containing internal standard (IS; verapamil) mixture for precipitating protein respectively. The samples were then vortexed for 30 s. After centrifugation at 4° C., 3900 rpm for 15 min, the supernatant was diluted 3 times with water. 3 μL of diluted supernatant was injected into the LC/MS/MS system for quantitative analysis.

[1] = 1% methylcellulose formulation, individual animals
[2] = 1% methylcellulose formulation, mean of 3 animals
[3] = propylene glycol/Vitamin E TPGS/water formulation, individual animals
[4] = propylene glycol/Vitamin E TPGS/water formulation, mean of 3 animals

Q: For `Cn1cc(-c2ccccc2)c(-c2cn(C)c(=O)c3[nH]c(-c4cnn(C(F)(F)F)c4)cc23)cc1=O` [Compound A, 6-methyl-4-(1-methyl-2-oxo-5-phenyl-1,2-dihydropyridin-4-yl)-2-(1-(trifluoromethyl)-1H-pyrazol-4-yl)-1,6-dihydro-7H-pyrrolo[2,3-c]pyridin-7-one], which concentration at 2 h [1] is on record?
A: Its concentration at 2 h is 25.5 ng/mL.

Q: What about the concentration at 2 h [2] of the same molecule?
A: Its concentration at 2 h is 23.3 ng/mL.

Q: What about the concentration at 4 h [1] of the same molecule?
A: Its concentration at 4 h is 41.5 ng/mL.

Q: And the concentration at 4 h [2]?
A: The concentration at 4 h was 44.6 ng/mL.

Q: And the concentration at 8 h [2]?
A: Its concentration at 8 h is 49.1 ng/mL.

Q: What about the concentration at 24 h [2] of the same molecule?
A: Its concentration at 24 h is 2.77 ng/mL.

Q: What about the AUC(0-t) [1] of the same molecule?
A: The AUC(0-t) was 480 ng·h/mL.

Q: And the Tmax [1]?
A: The Tmax was 4 h.

Q: And the Cmax [1]?
A: Its Cmax is 41.5 ng/mL.

Q: What about the AUC(0-t) [2] of the same molecule?
A: Its AUC(0-t) is 694 ng·h/mL.

Q: And the Tmax [2]?
A: Its Tmax is 6.67 h.

Q: What about the Cmax [2] of the same molecule?
A: Its Cmax is 53.1 ng/mL.

Q: And the concentration at 0.083 h [3]?
A: The concentration at 0.083 h was 4.79 ng/mL.

Q: What about the concentration at 0.083 h [4] of the same molecule?
A: The concentration at 0.083 h was 4.29 ng/mL.

Q: And the concentration at 0.25 h [3]?
A: The concentration at 0.25 h was 44.5 ng/mL.

Q: What about the concentration at 0.25 h [4] of the same molecule?
A: The concentration at 0.25 h was 43.8 ng/mL.

Q: What about the concentration at 0.5 h [3] of the same molecule?
A: The concentration at 0.5 h was 125 ng/mL.

Q: And the concentration at 0.5 h [4]?
A: The concentration at 0.5 h was 131 ng/mL.

Q: And the concentration at 1 h [3]?
A: Its concentration at 1 h is 277 ng/mL.

Q: What about the concentration at 1 h [4] of the same molecule?
A: Its concentration at 1 h is 268 ng/mL.

Q: And the concentration at 2 h [3]?
A: The concentration at 2 h was 390 ng/mL.

Q: And the concentration at 2 h [4]?
A: The concentration at 2 h was 396 ng/mL.

Q: What about the concentration at 4 h [3] of the same molecule?
A: The concentration at 4 h was 445 ng/mL.

Q: What about the concentration at 4 h [4] of the same molecule?
A: The concentration at 4 h was 399 ng/mL.

Q: What about the concentration at 8 h [3] of the same molecule?
A: Its concentration at 8 h is 266 ng/mL.

Q: What about the concentration at 8 h [4] of the same molecule?
A: Its concentration at 8 h is 189 ng/mL.

Q: And the concentration at 24 h [3]?
A: The concentration at 24 h was 13.1 ng/mL.

Q: What about the concentration at 24 h [4] of the same molecule?
A: The concentration at 24 h was 12.7 ng/mL.

Q: And the AUC(0-t) [3]?
A: The AUC(0-t) was 4950 ng·h/mL.

Q: What about the Tmax [3] of the same molecule?
A: Its Tmax is 4 h.

Q: What about the Cmax [3] of the same molecule?
A: Its Cmax is 445 ng/mL.

Q: What about the AUC(0-t) [4] of the same molecule?
A: The AUC(0-t) was 4040 ng·h/mL.

Q: What about the Tmax [4] of the same molecule?
A: The Tmax was 3.33 h.

Q: What about the Cmax [4] of the same molecule?
A: Its Cmax is 419 ng/mL.

Q: And the AUC(0-inf) [3]?
A: The AUC(0-inf) was 3510 ng·h/mL.

Q: And the half-life [3]?
A: Its half-life is 4.33 h.

Q: What about the MRT inf (propylene glycol/Vitamin E TPGS/water formulation, individual animals, read-out: MRTInf_obs) of the same molecule?
A: Its MRT inf is 6.39 h.
